According to US9079866B2, “Flap modulators” (JANSSEN PHARMACEUTICA NV, priority 2013, dated 2015):
Where a name gives a salt, the structure may show the parent alone.

What follows are compounds tested on leukotriene pathway in human whole blood (LTB4 levels) (assay: Human whole blood assay (A23187-stimulated LTB4)). Settings: Homo sapiens, human whole blood diluted 1:1, A23187-stimulated; read-out: LTB4 IC50 1:1.
Type: cell-based
Protocol: The ability of the compounds of the present invention to treat a FLAP-mediated disease and/or disorder, or associated symptoms or complications thereof, was determined using the following procedures. Binding assay data represent the average value obtained from two different assay plates, with samples run in duplicate on each plate. Human whole blood assay data represent a single replicate on an assay plate using whole blood from at least one healthy donor.
An in vitro cellular assay was performed using human whole blood collected in heparin-containing tubes, which was used to test the ability of compounds to modulate the leukotriene pathway in human whole blood. The blood was diluted 1:1 in RPMI medium, pre-incubated for 15 min at 37° Celsius with test compounds at various concentrations, and then stimulated with calcium ionophore, A23187 (7 μg/mL), for 30 min at 37° Celsius. The samples were then centrifuged and plasma was removed. The plasma was diluted in assay buffer and LTB4 levels were measured using a commercial kit (Enzo Life Sciences). The concentration of each compound that was required for half-maximal inhibition (modulation) of recombinant enzyme activity (IC50) was calculated by a 4-parameter equation using the program GraphPad Prism (GraphPad software).

SMILES | IC50 [µM]
CC(C)(C)NS(=O)(=O)c1ccccc1-c1ccc(-c2cc(N)c3[nH]ccc3c2)c(F)c1 [Example 458, 4′-(7-Amino-1H-indol-5-yl)-N-tert-butyl-3′-fluorobiphenyl-2-sulfonamide] | 0.053
Nc1cnc(-c2ccc(-c3ccccc3O[C@H]3CCCNC3)cc2F)cn1 [Example 634, 5-{3-Fluoro-2′-[(3S)-piperidin-3-yloxy]biphenyl-4-yl}pyrazin-2-amine] | 1.47
Nc1cnc(-c2ccc(-c3ccccc3S(N)(=O)=O)c(F)c2F)cn1 [Example 464, 4′-(5-Aminopyrazin-2-yl)-2′,3′-difluorobiphenyl-2-sulfonamide] | > 10
C[C@@H]([C@@H](O)c1ccccc1)N(C)S(=O)(=O)c1ccccc1-c1ccc(-c2ccc(N)nc2)c(F)c1 [Example 666, 4′-(6-Aminopyridin-3-yl)-3′-fluoro-N-((1S,2S)-1-hydroxy-1-phenylpropan-2-yl)-N-methyl-[1,1′-biphenyl]-2-sulfonamide] | 0.0361
Nc1cnc(-c2ccc(-c3cccnc3S(=O)(=O)C3CCNC3)cc2F)cn1 (racemic) [Example 803, racemic 5-(2-Fluoro-4-(2-(pyrrolidin-3-ylsulfonyl)pyridin-3-yl)phenyl)pyrazin-2-amine hydrochloride] | 0.241
CCC(C)S(=O)(=O)c1ncccc1-c1ccc(-c2cnc(N)nc2)c(F)c1 (racemic) [Example 813, racemic 5-(4-(2-(sec-Butylsulfonyl)pyridin-3-yl)-2-fluorophenyl)pyrimidin-2-amine formate] | 0.0751
Nc1ncc(-c2ccc(-c3ccccc3S(=O)(=O)N3CCCC(O)C3)cc2F)cc1F (racemic) [Example 668, (racemic)-1-((4′-(6-Amino-5-fluoropyridin-3-yl)-3′-fluoro-[1,1′-biphenyl]-2-yl)sulfonyl)piperidin-3-ol] | 0.19
COc1cc(C(F)(F)F)ccc1-c1ccc(-c2cnc(N)cn2)c(F)c1 [Example 553, 5-[3-Fluoro-2′-methoxy-4′-(trifluoromethyl)biphenyl-4-yl]pyrazin-2-amine] | 0.43
CC(C)(C)NS(=O)(=O)c1ccccc1-c1ccc(-c2ccc3[nH]ccc3c2)c(F)c1 [Example 421, N-tert-Butyl-3′-fluoro-4′-(1H-indol-5-yl)biphenyl-2-sulfonamide] | > 10
N#Cc1nc(-c2ccc(-c3ccccc3S(=O)(=O)N3CCNC(=O)C3)cc2F)cnc1N [Example 414, 3-Amino-6-{3-fluoro-2′-[(3-oxopiperazin-1-yl)sulfonyl]biphenyl-4-yl}pyrazine-2-carbonitrile] | 0.12

Same assay, conditions: Homo sapiens, human whole blood diluted 1:1 in RPMI, A23187-stimulated LTB4; read-out: LTB4 IC50 1:1

SMILES | IC50 [µM]
CC(C)(CCO)NS(=O)(=O)c1ccccc1-c1ccc(-c2cnc(N)cn2)c(F)c1 [Example 102, 4′-(5-Aminopyrazin-2-yl)-3′-fluoro-N-(3-hydroxy-1,1-dimethylpropyl)biphenyl-2-sulfonamide] | 0.035
C[C@@H](CO)NS(=O)(=O)c1ccccc1-c1ccc(-c2cnc(N)cn2)c(F)c1 [Example 25, (R)-4′-(5-Aminopyrazin-2-yl)-3′-fluoro-N-[(1R)-2-hydroxy-1-methylethyl]biphenyl-2-sulfonamide] | 0.023
CN[C@@H]1CCN(S(=O)(=O)c2ccccc2-c2ccc(-c3cnc(N)cn3)c(F)c2)C1 [Example 126, (R)-5-(3-Fluoro-2′-{[3-(methylamino)pyrrolidin-1-yl]sulfonyl}biphenyl-4-yl)pyrazin-2-amine] | 0.572
CC(CO)(CO)NS(=O)(=O)c1ccccc1-c1ccc(-c2cnc(N)nc2)c(F)c1 [Example 255, 4′-(2-Aminopyrimidin-5-yl)-3′-fluoro-N-[2-hydroxy-1-(hydroxymethyl)-1-methylethyl]biphenyl-2-sulfonamide] | 0.076
N#CCCNS(=O)(=O)c1ccccc1-c1ccc(-c2cnc(N)cn2)c(F)c1 [Example 169, 4′-(5-Aminopyrazin-2-yl)-N-(2-cyanoethyl)-3′-fluorobiphenyl-2-sulfonamide] | 0.023
Nc1cnc(-c2ccc(-c3ccccc3S(=O)(=O)N3CCCC(O)C3)cc2F)cn1 (racemic) [Example 70, racemic 1-{[4′-(5-Aminopyrazin-2-yl)-3′-fluorobiphenyl-2-yl]sulfonyl}piperidin-3-ol] | 0.01
C[C@H](NS(=O)(=O)c1ccccc1-c1ccc(-c2cnc(N)cn2)c(F)c1)c1ccccc1 [Example 24, (R)-4′-(5-Aminopyrazin-2-yl)-3′-fluoro-N-[(1R)-1-phenylethyl]biphenyl-2-sulfonamide] | 0.048
CC(C)(CO)CNS(=O)(=O)c1ccccc1-c1ccc(-c2cnc(N)cn2)c(F)c1 [Example 103, 4′-(5-Aminopyrazin-2-yl)-3′-fluoro-N-(3-hydroxy-2,2-dimethylpropyl)biphenyl-2-sulfonamide] | 0.017
Nc1cnc(-c2ccc(-c3ccccc3NS(=O)(=O)N3CCCC3)cc2F)cn1 [Example 181, N-[4′-(5-Aminopyrazin-2-yl)-3′-fluorobiphenyl-2-yl]pyrrolidine-1-sulfonamide] | 0.24
Nc1cnc(-c2ccc(-c3ccccc3S(=O)(=O)N3CC[C@H](O)C3)cc2F)cn1 [Example 184, (3S)-1-{[4′-(5-Aminopyrazin-2-yl)-3′-fluorobiphenyl-2-yl]sulfonyl}pyrrolidin-3-ol trifluoroacetic acid salt] | 0.021
Nc1cnc(-c2ccc(-c3ccccc3S(=O)(=O)N3c4ccccc4C[C@H]3CO)cc2F)cn1 [Example 135, (S)-(1-{[4′-(5-Aminopyrazin-2-yl)-3′-fluorobiphenyl-2-yl]sulfonyl}-2,3-dihydro-1H-indol-2-yl)-methanol] | 0.016
Nc1cnc(-c2ccc(-c3ccccc3S(=O)(=O)N[C@H]3c4ccccc4C[C@H]3O)cc2F)cn1 [Example 160, 4′-(5-Aminopyrazin-2-yl)-3′-fluoro-N-((1S,2R)-2-hydroxy-2,3-dihydro-1H-inden-1-yl)-[1,1′-biphenyl]-2-sulfonamide] | 0.005
Nc1cnc(-c2ccc(-c3ccccc3S(=O)(=O)N3CCCC(CO)C3)cc2F)cn1 (racemic) [Example 76, racemic (1-{[4′-(5-Aminopyrazin-2-yl)-3′-fluorobiphenyl-2-yl]sulfonyl}piperidin-3-yl)methanol] | 0.027
Nc1cnc(-c2ccc(-c3ccccc3S(=O)(=O)N[C@H]3CCCCNC3=O)cc2F)cn1 (stereo in doubt) [Example 28, (S)-4′-(5-Aminopyrazin-2-yl)-3′-fluoro-N-[(3S)-2-oxoazepan-3-yl]biphenyl-2-sulfonamide] | 0.325
CS(=O)(=O)NS(=O)(=O)c1ccccc1-c1ccc(-c2cnc(N)cn2)c(F)c1 [Example 96, 4′-(5-Aminopyrazin-2-yl)-3′-fluoro-N-(methylsulfonyl)biphenyl-2-sulfonamide] | > 10
O=S1(=O)CCN(S(=O)(=O)c2ccccc2-c2ccc(-c3cnc4[nH]ccc4n3)c(F)c2)CC1 [Example 382, 2-{2′-[(1,1-Dioxidothiomorpholin-4-yl)sulfonyl]-3-fluorobiphenyl-4-yl}-5H-pyrrolo[2,3-b]pyrazine] | 0.011
CNS(=O)(=O)c1cc(C(F)(F)F)ccc1-c1ccc(-c2cnc(N)cn2)c(F)c1 [Example 208, 4′-(5-Aminopyrazin-2-yl)-3′-fluoro-N-methyl-4-(trifluoromethyl)biphenyl-2-sulfonamide] | 0.014
Nc1cnc(-c2ccc(-c3ccccc3S(=O)(=O)N3CC[C@H](N)C3)cc2F)cn1 [Example 93, (S)-5-(2′-((3-Aminopyrrolidin-1-yl)sulfonyl)-3-fluoro-[1,1′-biphenyl]-4-yl)pyrazin-2-amine] | 0.128
Nc1cnc(-c2ccc(-c3ccccc3S(=O)(=O)N3CCN(c4ncccn4)CC3)cc2F)cn1 [Example 177, 5-{3-Fluoro-2′-[(4-pyrimidin-2-ylpiperazin-1-yl)sulfonyl]biphenyl-4-yl}pyrazin-2-amine] | 0.302
Nc1cnc(-c2ccc(-c3ccccc3S(=O)(=O)N[C@@H]3c4ccccc4C[C@@H]3O)cc2F)cn1 [Example 161, 4′-(5-Aminopyrazin-2-yl)-3′-fluoro-N-((1R,2S)-2-hydroxy-2,3-dihydro-1H-inden-1-yl)-[1,1′-biphenyl]-2-sulfonamide] | 0.048
C[C@H](CO)NS(=O)(=O)c1ccccc1-c1ccc(-c2cnc3c(c2)OCCN3)c(F)c1 [Example 390, 4′-(3,4-Dihydro-2H-pyrido[3,2-b][1,4]oxazin-7-yl)-3′-fluoro-N-[(1R)-2-hydroxy-1-methylethyl]biphenyl-2-sulfonamide] | 0.01
N#CC1CN(S(=O)(=O)c2ccccc2-c2ccc(-c3cnc(N)nc3)c(F)c2)C1 [Example 314, 1-((4′-(2-Aminopyrimidin-5-yl)-3′-fluoro-[1,1′-biphenyl]-2-yl)sulfonyl)azetidine-3-carbonitrile] | 0.178
N#CC1CCCN(S(=O)(=O)c2ccccc2-c2ccc(-c3cnc(N)cn3)c(F)c2)C1 (racemic) [Example 63, racemic 1-{[4′-(5-Aminopyrazin-2-yl)-3′-fluorobiphenyl-2-yl]sulfonyl}piperidine-3-carbonitrile] | 0.028

Same assay, conditions: Homo sapiens, read-out: LTB4 IC50 1:1

SMILES | IC50 [µM]
C[Si](C)(C)CCOCS(=O)(=O)c1ccccc1-c1ccc(-c2cnc(N)nc2)c(F)c1 [Example 338, 5-[3-Fluoro-2′-({[2-(trimethylsilyl)ethoxy]methyl}sulfonyl)biphenyl-4-yl]pyrimidin-2-amine formate salt] | 1.09
